Test results published in ChEMBL document CHEMBL1124848, “Monomethyl ether derivatives of 7,8-dihydroxy- and 8,9-dihydroxy-4-n-propyl-1,2,3,4,4a,5,6,10b-octahydrobenzo[f]quinolines as possible products of metabolism by catechol-O-methyltransferase” (1990).

Key:
[1] = Evaluated for its effect in the cat cardioaccelerator nerve assay at the dose of 300 ug/kg; format: functional; conditions: Felis catus
[2] = Evaluated for its effect in the cat cardioaccelerator nerve assay at the dose of 0.0013 umol/kg; format: functional; conditions: Felis catus

SMILES | inhibition in vivo at 0.3 mg/kg [1] [%] | inhibition in vivo at 0.0013 µmol/kg [2] [%]
CCCN1CCC[C@H]2c3cc(OC)c(O)cc3CC[C@@H]21 | 50 | 
CCCN1CCC[C@H]2c3cc(O)c(O)cc3CC[C@@H]21 |  | 50
